Data from the NIST ThermoML archive (doi:10.1016/j.jct.2015.09.028).

How the values were obtained:
[1] = molar heat capacity at constant pressure; settings: Liquid, Flow calorimetry
[2] = 93 kPa, Liquid; for viscosity: Concentric cylinders viscometry; for mass density: Vibrating tube method

c1ccc(Oc2ccccc2)cc1 [diphenyl ether]
molar heat capacity at constant pressure [J/K/mol], [1]
Settings | 100 kPa | 5000 kPa | 10000 kPa | 15000 kPa | 20000 kPa | 25000 kPa
313.15 K | 274.37 | 273.52 | 273.18 | 272.5 | 272.16 | –
333.15 K | 286.97 | 285.95 | 284.93 | 284.59 | 283.39 | 282.71
353.15 K | 299.05 | 298.03 | 296.84 | 296.33 | 295.48 | 294.63

[2]
Settings | mass density [kg/m3] | viscosity [mPa·s]
303.15 K | 1065.5 | 3.33
308.15 K | 1061.2 | 2.96
313.15 K | 1056.9 | 2.65
323.15 K | 1048.2 | 2.17
333.15 K | 1039.6 | 1.82
343.15 K | 1030.9 | 1.54
353.15 K | 1022.3 | 1.33
363.15 K | 1013.7 | 1.16
373.15 K | 1005.2 | 1.03
